Values quoted from earlier work, collected in patent US20210236687A1, “CANNABINOID-BASED ORAL HEMOSTATIC COMPOSITIONS” (Pac-Dent, Inc., priority 2020, published 2021).

Key:
[1] = tested on: MCP-2 chemokine and other proinflammatory cytokines; conditions: Petrosino et al. 2018; inhibition of production of MCP-2 chemokine and other proinflammatory cytokines
[2] = tested on: methicillin-resistant Staphylococcus aureus strains (MRSA); conditions: European research
[3] = in vivo
[4] = Evans 1991
[5] = in vivo; remark: listed apart in the source

Structure (SMILES): C=C(C)[C@@H]1CCC(C)=C[C@H]1c1c(O)cc(CCCCC)cc1O [CBD, cannabidiol, reference compound]
- anti-inflammatory properties in an in vitro model of allergic contact dermatitis [1]: potent anti-inflammatory properties

Structure (SMILES): CCCCCc1cc(O)c(C/C=C(\C)CCC=C(C)C)c(O)c1 [CBG, cannabigerol]
- antibacterial effect against MRSA strains resistant to several classes of drugs [2]: effective antibacterial agent
- anti-inflammatory properties in an in vitro model of allergic contact dermatitis [1]: some anti-inflammatory benefits
- inflammation characteristics in animal experiments [3]: effective in decreasing the inflammation characteristics

Structure (SMILES): CCCCCc1cc(O)c2c(c1)OC(C)(C)[C@@H]1CCC(C)=C[C@@H]21 [THC, tetrahydrocannabinol]
- cyclooxygenase (COX) inhibition (cyclooxygenase (COX)): without any cyclooxygenase (COX) inhibition
- anti-inflammatory potency relative to aspirin [4]: twenty times
- anti-inflammatory potency relative to hydrocortisone [4]: twice

Structure (SMILES): C=C(C)[C@@H]1CCC(C)=C[C@H]1c1c(O)cc(CCC)cc1O [CBDV, cannabidivarin]
- anti-inflammatory properties in an in vitro model of allergic contact dermatitis [1]: some anti-inflammatory benefits

Structure (SMILES): CCCCCc1cc(O)c2c(c1)OC(C)(CCC=C(C)C)C=C2 (stereo not shown) [CBC, cannabichromene]
- pain and inflammation associated with collagen-induced osteoarthritis [5]: block pain and inflammation
- anti-inflammatory properties in an in vitro model of allergic contact dermatitis [1]: some anti-inflammatory benefits
